Test results published in US6436922B1, “5,11-dihydrobenzo[b,e][1,4]oxazepine derivatives and pharmaceutical compositions containing the same” (Ajinomoto Co., Inc., priority 1996, dated 2002).

Assays:
[1] = test system: WRS-induced defecation; test: Inhibition of acceleration of stool excretion in a wrap restraint stress (WRS) model; type: in vivo; settings: rat, p.o. 30 minutes before stress, stool over 1 hour, Litchfield-Wilcoxon method
Procedure: In-vivo test [effect of inhibiting acceleration of stool excretion in a wrap restraint stress (WRS) model]:
The test was conducted by the method of William et al. [Gastroenterology, 94, 611 (1988)]. That is, each of Crj:CD male rats (from 6 to 7 weeks old) was slightly etherized, and the fore shoulder, the foreleg and the chest thereof were wrapped with a paper tape to apply stress thereto. The rat was allowed to stand under stress for 1 hour, and the amount of stool excreted during that time was measured. The test compound was orally administered to the rat 30 minutes before applying the stress thereto. The normal group was etherized, and then allowed to stand for 1 hour without applying stress thereto. Thereafter, the amount of stool excreted was measured. In this test, nicardipine and Compound A were used as comparative substances. The 50% inhibition dose (ID50) relative to the increase in the […] of stool owing to WRS was calculated by the Litchfield-Wilcoxon method, and the results are shown in Table 2-1. In addition, and inhibition of test compounds (lomg/kg, p.o.) expressed as a percentage of control were determined and the results were shown in Table 2—2.

[2] = Decrease in the body temperature of rats; type: in vivo; settings: rat, 100 mg/kg p.o.; for change in body temperature 1 hour: rectal temperature after 1 hour; for change in body temperature 2 hour: rectal temperature after 2 hours; for change in body temperature 5 hour: rectal temperature after 5 hours
Procedure: Decrease in the body temperature of rats:
A suspension of 100 mg/kg of a test compound in 0.5% methyl cellulose was orally administered to each of Crj:CD male rats (from 7 to 8 weeks old), and the body temperature (temperature of the rectum) after 1, 2 or 5 hours was measured using a thermistor thermometer, and the difference in the body temperature between the compound of the present invention and the comparative substance is shown in Table 4.

[3] = test system: tail artery pressure; test: Decrease in the blood pressure in rats (tail cuff method); type: in vivo; settings: rat, dose causing 20 mmHg decrease in blood pressure 1 hour after administration
Procedure: Decrease in the blood pressure in rats:
This test was conducted by the tail cuff method. That is, each of Crj:CD male rats (from 8 to 9 weeks old) had been warmed to fully expand the tail artery. The tail artery pressure was then measured immediately before, and 1 hour after, the oral administration of the test compound using a non-invasive blood pressure measuring device. In this test, nicardipine and Compound A were used as comparative substances. With respect to the decrease in the blood pressure, a dose at which to cause the decrease in the blood pressure by 20 mmHg from the blood pressure immediately before the administration was calculated as ED20 from the regression line of the decrease (mmHg) in the blood pressure relative to the logarism of the dose of the test compound. As is clear from Tables 2-1 and 2—2, the compound of the present invention has a higher selectivity for the intestinal tract than Compound A, and it can be an excellent agent of improving an abnormal moving function of the digestive tract.

[4] = test system: rat pupillary diameter; test: Anticholinergic activity by mydriasis of rats; type: in vivo; settings: for rat pupillary diameter (mm) 1 hour / rat pupillary diameter (mm) 2 hours / rat pupillary diameter (mm) 6 hours: 300 mg/kg p.o.; for rat pupillary diameter (mm) 1 hour: after 1 hour; for rat pupillary diameter (mm) 2 hours: after 2 hours; for rat pupillary diameter (mm) 6 hours: after 6 hours; for rat pupillary diameter (mm) before: before administration of 300 mg/kg p.o.
Procedure: Anticholinergic activity by mydriasis of rats: […] The diameter of the pupil after 1, 2 or 6 hours was measured using a stereoscopic microscope of 5x magnification.

[5] = Acute toxicity test; settings: ddy, mouse, in vivo, ip; male mice, i.p., mortality observed for 7 days; read-out: 50% lethal dose (LD50, mg/kg, i.p.)
[6] = test system: Crj:CD male rats; test: Test for a toxicity in continuous administration for 1 week; type: in vivo; settings: rat, 100 mg/kg p.o. once daily for 1 week
Procedure: Test for a toxicity in continuous administration for 1 week:
A suspension of 100 mg/kg of the compound in Example 2 or 12 in 0.5% methyl cellulose was orally administered to each of Crj:CD male rats (6 weeks old) continuously for 1 week at a rate of one administration per day to observe general conditions, to measure the body weight, to conduct biochemical inspection of the blood, to measure the weights of the internal organs and to conduct pathological inspection.

Cl.N#Cc1ccc(CCN2CCC[C@@H]2CN2c3ccccc3COc3ccccc32)cc1 gave a melting point of 109 to 112 °C.

In the case of COc1ccc(CCN2CCC[C@H]2CN2c3ccccc3COc3ccccc32)cc1OC.Cl, the melting point was 106 to 109 °C.

Compound Cl.c1ccc2c(c1)COc1ccccc1N2C[C@@H]1CCCN1CCc1ccc2c(c1)OCO2 has a melting point of 158 to 162 °C.

Work on COc1cccc(CCN2CCC[C@H]2CN2c3ccccc3COc3ccccc32)c1.Cl yielded a melting point of 164 to 166 °C.

Work on Cl.c1ccc(CCN2CCC[C@@H]2CN2c3ccccc3COc3ccccc32)cc1 yielded a melting point of 179 to 182 °C.

COc1ccc(CCN2CCC[C@@H]2CN2c3ccccc3COc3ccccc32)cc1OC.Cl showed a melting point of 106 to 109 °C.

With COc1ccc(CCN2CCC[C@H]2CN2c3ccccc3CSc3ccccc32)cc1.Cl [Compound A, reference compound] the “Inhibitory effect on WRS-induced defecation (ID50, mg/kg, p.o.)” value (“Inhibitory effect … (ID50, mg/kg, p.o.)” below) [1] was 34.8 mg/kg, the “change in body temperature 1 hour” value [2] was −0.5 and the “change in body temperature 2 hour” value [2] was −0.6. The “change in body temperature 5 hour” value [2] was −0.5, the “Hypotensive effect (ED20, mg/kg, p.o.)” value [3] was >100 mg/kg and the “rat pupillary diameter (mm) 1 hour” value [4] was 2.18 mm. For the same compound, the “rat pupillary diameter (mm) 2 hours” value [4] was 2.27 mm, the “rat pupillary diameter (mm) 6 hours” value [4] was 2.62 mm and the “rat pupillary diameter (mm) before” value [4] was 0.85 mm. For the same compound, the LD50 at 7 days [5] was 162 mg/kg.

In the case of COc1ccc(CCN2CCC[C@@H]2CN2c3ccccc3COc3ccccc32)cc1.Cl [Example 2, (R)-(+)-5,11-dihydro-5-[1-(4-methoxyphenethyl)-2-pyrrolidinylmethyl]-dibenzo[b,e][1,4]oxazepine hydrochloride], the “Inhibitory effect … (ID50, mg/kg, p.o.)” value [1] was 3.1 mg/kg, the “change in body temperature 1 hour” value [2] was 0 and the “change in body temperature 2 hour” value [2] was −0.1. For the same compound, the “change in body temperature 5 hour” value [2] was −0.2, the “Hypotensive effect (ED20, mg/kg, p.o.)” value [3] was >1000 mg/kg and the “rat pupillary diameter (mm) 1 hour” value [4] was 0.90 mm. For the same compound, the “rat pupillary diameter (mm) 2 hours” value [4] was 0.77 mm, the “rat pupillary diameter (mm) 6 hours” value [4] was 0.97 mm and the “rat pupillary diameter (mm) before” value [4] was 0.97 mm. The “toxicity findings (general conditions, body weight, blood biochemistry, organ weights, pathology)” value [6] was “no remarkable change was observed” and the LD50 at 7 days [5] was 175 mg/kg.

In the case of Cl.Fc1ccc(CCN2CCC[C@@H]2CN2c3ccccc3COc3ccccc32)cc1 [Example 4, (R)-(+)-5,11-dihydro-5-[1-(4-fluorophenethyl)-2-pyrrolidinylmethyl]dibenzo[b,e][1,4]oxazepine hydrochloride], the “Inhibitory effect … (ID50, mg/kg, p.o.)” value [1] was 1.8 mg/kg, the “change in body temperature 1 hour” value [2] was −0.3 and the “change in body temperature 2 hour” value [2] was −0.2. The “change in body temperature 5 hour” value [2] was “+0.1”, the “Hypotensive effect (ED20, mg/kg, p.o.)” value [3] was >1000 mg/kg and the “rat pupillary diameter (mm) 1 hour” value [4] was 0.70 mm. For the same compound, the “rat pupillary diameter (mm) 2 hours” value [4] was 0.57 mm, the “rat pupillary diameter (mm) 6 hours” value [4] was 0.70 mm and the “rat pupillary diameter (mm) before” value [4] was 0.80 mm. The LD50 at 7 days [5] was > 200 mg/kg.

For COc1ccc(CCN2CCC[C@H]2CN2c3ccccc3COc3ccccc32)cc1.Cl [Example 12, (S)-(−)-5,11-dihydro-5-[1-(4-methoxyphenethyl)-2-pyrrolidinylmethyl]dibenzo[b,e][1,4]oxazepine hydrochloride], the “toxicity findings (general conditions, body weight, blood biochemistry, organ weights, pathology)” value [6] was “no remarkable change was observed” and the LD50 at 7 days [5] was > 280 mg/kg.

For COC(=O)C1=C(C)NC(C)=C(C(=O)OCCN(C)Cc2ccccc2)C1c1cccc([N+](=O)[O-])c1 (centres unmarked) [nicardipine, reference compound], the “Inhibitory effect … (ID50, mg/kg, p.o.)” value [1] was 6.8 mg/kg and the “Hypotensive effect (ED20, mg/kg, p.o.)” value [3] was 4.0 mg/kg.
